The record followed here is patent US20260151403A1, “NEK7 DEGRADERS AND METHODS OF USE THEREOF” (Captor Therapeutics S.A., priority 2022, published 2026).

Structures are written as SMILES. Counter-ions that a name gives are not always drawn.

For experiment [1], the target named is T1, [NEK7]-[compound of formula (I)]-[CRBN/DDB1] complex (Homo sapiens, UniProt Q8TDX7+Q96SW2). The experiment is described as follows: AlphaLISA dose response ternary complex formation assay. In kind it is binding. The note with it: 1 μM compound; normalized to maximum signal of Compound 2 (positive control) and DMSO background; read-out: Normalized AlphaLISA ternary complex average signal at 1 μM molecule. In short, it runs like this:
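Biotinylated NEK7 (200 nM) on streptavidin donor beads and 6×His-CRBN/Strep-DDB1 (200 nM) on anti-His acceptor beads, each at 40 μg/ml and preincubated 30 min, then mixed and added to compound in HBS pH 7.4, 0.1% Tween-20, 1 mM DTT, 2% DMSO. After 30 min at 25 °C, AlphaLISA signal was read (ex 680/em 615 nm) and normalised to DMSO background and maximal Compound 2 signal.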
(In general: Bead proximity is the source of the signal in Alpha formats.)

The target in the next experiment is NEK7-HiBiT protein (Homo sapiens, UniProt Q8TDX7). Description: NEK7-HiBiT degradation assay (Nano-Glo HiBiT Lytic Assay) in HEK293 NEK7-HiBiT cells. The experiment is classed as cell-based. The note with it: 24 h, conc. 0.1, 1 and 10 μM tested, concentration of the table values not stated, mean of 3 technical replicates. In short, it runs like this:
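HEK293 cells with CRISPR knock-in N-terminal HiBiT-tagged NEK7 exposed to compound for 24 h at 37 °C, 5% CO2. Residual NEK7-HiBiT was read as Nano-Glo HiBiT lytic luminescence and expressed as % of DMSO control across triplicates; compounds run at 0.1, 1 and 10 μM.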
On the technique in general: The HiBiT peptide binds its large partner to form an active luciferase.

In experiment [2] the target is T1, [NEK7]-[compound of formula (I)]-[CRBN/DDB1] complex. The experiment is described as follows: HTRF ternary complex assay. The experiment is classed as binding. The note with it: dose-response, 180 min at 25° C.; read-out: HTRF ternary complex Average pEC50 by molecule (converted). The gist of the method: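 Mix of 24 nM NEK7, 52.8 nM 6×His-CRBN/Strep-DDB1, 3 nM streptavidin-Eu cryptate and 6.67 nM anti-6×His-d2 in PPI Europium detection buffer with 1 mM DTT, dose-response compound, 0.5% DMSO, 180 min at 25° C. TR-FRET (665/620) read, normalized to DMSO background, Hill-slope fit gave EC50/pEC50.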

T1 sequence (Q8TDX7 whole entry): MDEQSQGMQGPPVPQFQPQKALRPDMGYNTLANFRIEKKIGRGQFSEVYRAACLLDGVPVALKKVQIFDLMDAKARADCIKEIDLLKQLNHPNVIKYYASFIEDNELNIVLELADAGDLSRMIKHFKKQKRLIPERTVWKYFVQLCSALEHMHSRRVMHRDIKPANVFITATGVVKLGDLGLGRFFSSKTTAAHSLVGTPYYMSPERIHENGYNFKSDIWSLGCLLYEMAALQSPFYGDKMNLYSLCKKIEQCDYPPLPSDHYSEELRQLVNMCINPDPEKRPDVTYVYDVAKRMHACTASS
T1 sequence (Q96SW2 whole entry): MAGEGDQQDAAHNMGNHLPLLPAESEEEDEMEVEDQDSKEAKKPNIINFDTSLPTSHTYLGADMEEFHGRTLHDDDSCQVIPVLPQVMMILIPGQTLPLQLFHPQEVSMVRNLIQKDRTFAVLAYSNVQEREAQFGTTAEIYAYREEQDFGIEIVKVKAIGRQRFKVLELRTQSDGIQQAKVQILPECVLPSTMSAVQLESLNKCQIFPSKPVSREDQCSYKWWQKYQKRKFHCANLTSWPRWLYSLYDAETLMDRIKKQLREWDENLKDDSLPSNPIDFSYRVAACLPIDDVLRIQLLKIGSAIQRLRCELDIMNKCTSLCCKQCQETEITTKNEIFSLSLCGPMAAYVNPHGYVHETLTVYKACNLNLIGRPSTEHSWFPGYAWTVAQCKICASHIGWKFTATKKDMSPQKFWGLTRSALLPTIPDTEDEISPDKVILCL
T1 sequence (Q16531 whole entry partner): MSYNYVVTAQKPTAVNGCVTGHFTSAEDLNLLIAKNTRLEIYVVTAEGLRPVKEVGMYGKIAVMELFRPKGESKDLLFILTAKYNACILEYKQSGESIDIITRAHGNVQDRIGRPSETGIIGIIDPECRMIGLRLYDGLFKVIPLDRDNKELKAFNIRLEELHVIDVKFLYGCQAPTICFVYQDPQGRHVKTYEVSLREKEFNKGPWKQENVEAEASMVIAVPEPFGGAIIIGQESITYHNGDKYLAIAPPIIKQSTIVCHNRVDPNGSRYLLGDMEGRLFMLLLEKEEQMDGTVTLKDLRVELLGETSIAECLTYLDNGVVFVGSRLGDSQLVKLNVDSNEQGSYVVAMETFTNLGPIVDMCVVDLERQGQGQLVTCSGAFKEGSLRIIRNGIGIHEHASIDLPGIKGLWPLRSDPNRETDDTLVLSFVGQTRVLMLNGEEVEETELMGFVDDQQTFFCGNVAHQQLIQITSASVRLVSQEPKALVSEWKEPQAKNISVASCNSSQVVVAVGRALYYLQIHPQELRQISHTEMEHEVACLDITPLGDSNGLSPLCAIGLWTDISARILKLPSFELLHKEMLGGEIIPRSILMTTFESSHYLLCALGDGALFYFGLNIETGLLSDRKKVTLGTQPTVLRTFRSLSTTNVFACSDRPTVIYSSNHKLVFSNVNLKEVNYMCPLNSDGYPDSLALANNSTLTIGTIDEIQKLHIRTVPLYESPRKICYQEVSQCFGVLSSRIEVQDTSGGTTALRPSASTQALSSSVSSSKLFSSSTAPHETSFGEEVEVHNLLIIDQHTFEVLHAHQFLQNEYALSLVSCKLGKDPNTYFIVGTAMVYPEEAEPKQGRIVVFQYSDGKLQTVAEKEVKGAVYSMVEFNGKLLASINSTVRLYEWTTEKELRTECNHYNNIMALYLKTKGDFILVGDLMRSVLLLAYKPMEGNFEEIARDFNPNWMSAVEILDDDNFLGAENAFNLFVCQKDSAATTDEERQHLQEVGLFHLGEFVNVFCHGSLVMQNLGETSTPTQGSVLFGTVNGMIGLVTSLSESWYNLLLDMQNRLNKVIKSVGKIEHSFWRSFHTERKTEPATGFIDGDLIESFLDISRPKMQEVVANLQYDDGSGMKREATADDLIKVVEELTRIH
Chain of NEK7-HiBiT protein (Q8TDX7 whole entry): as the sequence (Q8TDX7 whole entry) above
Chain of NEK7-HiBiT protein (Q96SW2 whole entry, further chain): as the sequence (Q96SW2 whole entry) above
Chain of NEK7-HiBiT protein (Q16531 whole entry partner): as the sequence (Q16531 whole entry partner) above

Consider `O=C1CCC(N2Cc3cc(N4CCCCN4)ccc3C2=O)C(=O)N1` (stereo not drawn) [Compound 58, 3-(1-oxo-5-(tetrahydropyridazin-1 (2H)-yl)isoindolin-2-yl)piperidine-2,6-dione], for which, in experiment [1], the activation at 1 µM lay in the range of 20 to 80%. Further, the “Levels of NEK7-HiBiT Protein (as a % of DMSO control)” value (“Levels … (as a % of DMSO control)” below) at NEK7-HiBiT protein is “C (Levels of NEK7-HiBiT Protein > 50% and <75%)”. In experiment [2], the EC50 was 100 to 316 nM.

On to `O=C1CCC(N2C(=O)c3cccc4c(C5CCCCN5)ccc2c34)C(=O)N1` (stereo not drawn) [Compound 59, 3-(2-oxo-6-(piperidin-2-yl)benzo[cd]indol-1 (2H)-yl)piperidine-2,6-dione], for which the activation at 1 µM in experiment [1] is less than 10%. The “Levels … (as a % of DMSO control)” value on NEK7-HiBiT protein was “D (Levels of NEK7-HiBiT Protein ≥ 75%)”. In addition, the EC50 in experiment [2] is greater than 3160 nM.

Take `O=C1CCC(N2Cc3cc(C4CCCC(C(F)(F)F)N4)ccc3C2=O)C(=O)N1` (stereo not drawn) [Compound 60, 3-(1-oxo-5-(6-(trifluoromethyl)piperidin-2-yl)isoindolin-2-yl)piperidine-2,6-dione]: the activation at 1 µM in experiment [1] is less than 10%. For the same compound, the “Levels … (as a % of DMSO control)” value at NEK7-HiBiT protein was “C (Levels of NEK7-HiBiT Protein > 50% and <75%)”. In experiment [2], the EC50 is 316 to 1000 nM.

In the case of `O=C1CCC(N2Cc3cc(C4COCCN4)ccc3C2=O)C(=O)N1` (stereo not drawn) [Compound 61, 3-(5-(morpholin-3-yl)-1-oxoisoindolin-2-yl)piperidine-2,6-dione], the activation at 1 µM in experiment [1] was 10 to 20%. Moreover, the “Levels … (as a % of DMSO control)” value on NEK7-HiBiT protein is “C (Levels of NEK7-HiBiT Protein > 50% and <75%)”. Moreover, the EC50 in experiment [2] is 100 to 316 nM.

For `O=C1CCC(N2Cc3cc(C4CCCCCN4)ccc3C2=O)C(=O)N1` (stereo not drawn) [Compound 62, 3-(5-(azepan-2-yl)-1-oxoisoindolin-2-yl)piperidine-2,6-dione], the activation at 1 µM in experiment [1] was in the range of 20 to 80%. The “Levels … (as a % of DMSO control)” value at NEK7-HiBiT protein was “B (Levels of NEK7-HiBiT Protein > 25% and ≤50%)”. Moreover, the EC50 in experiment [2] is 316 to 1000 nM.

Regarding `O=C1CCCC(N2Cc3cc(C4CCCCN4)ccc3C2=O)C(=O)N1` (stereo not drawn) [Compound 65, 3-(1-oxo-5-(piperidin-2-yl)isoindolin-2-yl)azepane-2,7-dione], the activation at 1 µM in experiment [1] is less than 10%. Moreover, the “Levels … (as a % of DMSO control)” value at NEK7-HiBiT protein was “C (Levels of NEK7-HiBiT Protein > 50% and <75%)”. Besides, the EC50 in experiment [2] was greater than 3160 nM.

On to `O=C1CCC(N2C(=O)c3ccc(C4CCCCN4)c4cccc2c34)C(=O)N1` (stereo not drawn) [Compound 66, 3-(2-oxo-5-(piperidin-2-yl)benzo[cd]indol-1 (2H)-yl)piperidine-2,6-dione trifluoroacetate], for which the activation at 1 µM in experiment [1] was 10 to 20%. For the same compound, the “Levels … (as a % of DMSO control)” value at NEK7-HiBiT protein is “B (Levels of NEK7-HiBiT Protein > 25% and ≤50%)”. The EC50 in experiment [2] was 100 to 316 nM.

In the case of `CN1CCNC(c2ccc3c(c2)CN(C2CCC(=O)NC2=O)C3=O)C1` (stereo not drawn) [Compound 67, 3-(5-(4-methylpiperazin-2-yl)-1-oxoisoindolin-2-yl)piperidine-2,6-dione], in experiment [1], the activation at 1 µM lay within 10 to 20%. Further, the “Levels … (as a % of DMSO control)” value at NEK7-HiBiT protein is “B (Levels of NEK7-HiBiT Protein > 25% and ≤50%)”. The EC50 in experiment [2] was greater than 3160 nM.

Turning to `O=C1CCC(N2Cc3cc(C4COCCO4)ccc3C2=O)C(=O)N1` (stereo not drawn) [Compound 68, 3-(5-(1,4-dioxan-2-yl)-1-oxoisoindolin-2-yl)piperidine-2,6-dione], the activation at 1 µM in experiment [1] lay in the range of 10 to 20%. Further, on NEK7-HiBiT protein, the “Levels … (as a % of DMSO control)” value is “D (Levels of NEK7-HiBiT Protein ≥ 75%)”. In addition, the EC50 in experiment [2] is 316 to 1000 nM.

On to `O=C1CCC(N2Cc3c(csc3C3CCCCO3)C2=O)C(=O)N1` (stereo not drawn) [Compound 71, 3-(4-oxo-1-(tetrahydro-2H-pyran-2-yl)-4H-thieno[3,4-c]pyrrol-5 (6H)-yl)piperidine-2,6-dione], for which the activation at 1 µM in experiment [1] was less than 10%. Moreover, the “Levels … (as a % of DMSO control)” value at NEK7-HiBiT protein was “D (Levels of NEK7-HiBiT Protein ≥ 75%)”. For the same compound, the EC50 in experiment [2] is greater than 3160 nM.

Consider `O=C1CCC(N2Cc3cc(C4CCCCN4)sc3C2=O)C(=O)N1` (stereo not drawn) [Compound 72, 3-(6-oxo-2-(piperidin-2-yl)-4,6-dihydro-5H-thieno[2,3-c]pyrrol-5-yl)piperidine-2,6-dione], for which, in experiment [1], the activation at 1 µM was less than 10%. In addition, the “Levels … (as a % of DMSO control)” value on NEK7-HiBiT protein is “C (Levels of NEK7-HiBiT Protein > 50% and <75%)”. Moreover, the EC50 in experiment [2] is greater than 3160 nM.

Consider `O=C1CCC(N2Cc3cc(C4CCCCO4)sc3C2=O)C(=O)N1` (stereo not drawn) [Compound 73, 3-(6-oxo-2-(tetrahydro-2H-pyran-2-yl)-4,6-dihydro-5H-thieno[2,3-c]pyrrol-5-yl)piperidine-2,6-dione], for which the activation at 1 µM in experiment [1] is less than 10%. At NEK7-HiBiT protein, the “Levels … (as a % of DMSO control)” value is recorded as “D (Levels of NEK7-HiBiT Protein ≥ 75%)”. For the same compound, the EC50 in experiment [2] was greater than 3160 nM.
